# Reference: patent publication EP4635500A1, “THERAPEUTIC AGENT FOR BACTERIAL INFECTION” (Sumitomo Pharma Co., Ltd., priority 2022, dated 2024)
# Read-outs that look alike come from different tables or passages of the source. Marks after values point to notes of the source that are not given here.
# Columns and labels:
# KPC-3 = KPC-3 (Klebsiella pneumoniae, UniProt Q9F663, H272Y); assay: biochemical; format: biochemical
# Method: (§1) After stirring, the resultants were preincubated for 30 minutes at 37°C. The reporter substrate solution was incubated at 37°C for 15 minutes or more, dispensed at 100 µL/well, and measured for a change in absorbance by a microplate reader at 37°C. For each measured concentration of the positive control and the inhibitor, an initial rate (µmol/L/sec) was determined from a time to be analyzed and a change in product amount. […] Ki,app for each inhibitor concentration was calculated from the slope, the inhibitor concentration, an enzyme concentration, Km, and kcat using Expression 2. If the initial rate was determined at two or more concentrations for each inhibitor and a plurality of Ki,app could be obtained, an average value was used as the Ki,app for the inhibitor. t−tc = Km /Vmax x ([Inhibitor]/Ki,app)x Ln[S]0 /[S] [formula] Ki,app = [Inhibitor]x Km /(kcatx[Enzyme])x 1/slope [formula]
# (§2) The experiment was performed in duplicate.
# OXA-48 = OXA-48 (Klebsiella pneumoniae, UniProt Q6XEC0); assay: Ki,app against β-lactamase (Example 1, Table 1); format: biochemical
# Method: as §1, §2
# KPC-2 = KPC-2 (Klebsiella pneumoniae, UniProt Q9F663); assay: Ki,app against β-lactamase (Example 1, Table 1); format: biochemical
# Method: as §1, §2
# OXA-23 = OXA-23 (Acinetobacter baumannii, UniProt Q9L4P2); assay: Ki,app against β-lactamase (Example 1, Table 1); format: biochemical
# Method: as §1, §2
# KPC-38 = KPC-38 (Klebsiella pneumoniae, UniProt Q9F663); format: biochemical; details: read-out: Ki app; KPC-38, class A; 30 min preincubation; n.d.: too low inhibitor activity at 100 µmol/L
# Method: as §1, §2
# OXA-72 = OXA-72 (Acinetobacter baumannii, UniProt Q5XQU0); assay: Ki,app against β-lactamase (Example 1, Table 1); format: biochemical; details: OXA-72, class D; 30 min preincubation; n.d.: too low inhibitor activity at 100 µmol/L; *: value from one of three experiments
# Method: as §1, §2
# OXA-65 = OXA-65 (Acinetobacter baumannii, UniProt Q58XD3); assay: Ki,app against β-lactamase (Example 1, Table 1); format: biochemical; details: OXA-65, class D; 30 min preincubation; n.d.: too low inhibitor activity at 100 µmol/L
# Method: as §1, §2
# OXA-66 = OXA-66 (Acinetobacter baumannii, UniProt Q58XD2); assay: Ki,app against β-lactamase (Example 1, Table 1); format: biochemical; details: OXA-66, class D; 30 min preincubation; n.d.: too low inhibitor activity at 100 µmol/L
# Method: as §1, §2
# anaerobic bacteria [1] = assay: microbe, parasite or virus in culture; format: cell-based
# anaerobic bacteria [2] = details: cited from earlier work
# KPC-8 = KPC-8 (Klebsiella pneumoniae, UniProt Q9F663, H272Y/V239G); assay: biochemical
# Method: as §1, §2
# KPC-6 = KPC-6 (Klebsiella pneumoniae, UniProt Q9F663, V239G); assay: biochemical
# Method: as §1, §2
# OXA-24 = OXA-24 (Acinetobacter baumannii, UniProt Q8RLA6); assay: Ki,app against β-lactamase (Example 1, Table 1); format: biochemical; details: OXA-24, class D; 30 min preincubation; n.d.: too low inhibitor activity at 100 µmol/L
# Method: as §1, §2
# KPC-31 = KPC-31 (Klebsiella pneumoniae, UniProt Q9F663, D178Y/H272Y); assay: biochemical
# Method: as §1, §2
# KPC-33 = KPC-33 (Klebsiella pneumoniae, UniProt Q9F663, D178Y); assay: biochemical
# Method: as §1, §2
# SHV-12 = SHV-12 (Klebsiella pneumoniae, UniProt P0A3M1, L31Q); assay: Ki,app against β-lactamase (Example 1, Table 1); format: biochemical; details: SHV-12, class A; 30 min preincubation; n.d.: too low inhibitor activity at 100 µmol/L
# Method: as §1, §2
# CTX-M-14 = CTX-M-14 (Escherichia coli, UniProt Q9L5C7); assay: Ki,app against β-lactamase (Example 1, Table 1); format: biochemical; details: CTX-M-14, class A; 30 min preincubation; n.d.: too low inhibitor activity at 100 µmol/L
# Method: as §1, §2
# CTX-M-27 = CTX-M-27 (Escherichia coli, UniProt Q840M4); assay: Ki,app against β-lactamase (Example 1, Table 1); format: biochemical; details: CTX-M-27, class A; 30 min preincubation; n.d.: too low inhibitor activity at 100 µmol/L
# Method: as §1, §2
# PDC-11 = PDC-11 (Pseudomonas aeruginosa, UniProt P24735, form not given, species not given); format: biochemical; details: PDC-11, class C; 30 min preincubation; n.d.: too low inhibitor activity at 100 µmol/L; read-out: Ki app
# Method: as §1, §2
# [3] = KPC-3, class A, 30 min preincubation, n.d.: too low inhibitor activity at 100 µmol/L, read-out: Ki app
# [4] = KPC-2, class A, 30 min preincubation, n.d.: too low inhibitor activity at 100 µmol/L, read-out: Ki app
structure (smiles),measurement,setting,value
"CC1(C)[C@H](C(=O)O)N2C(=O)C[C@H]2S1(=O)=O [Sulbactam, sulbactam]",Ki,KPC-3,674 ± 239 nM
same,Ki,OXA-48,264 ± 116 nM
same,Ki,KPC-2,420 ± 99.2 nM
same,Ki,OXA-23,681 ± 74.3 nM
same,Ki,KPC-38,405 ± 99.6 nM
"NC(=O)[C@@H]1CC[C@@H]2CN1C(=O)N2OS(=O)(=O)O [Avibactam, avibactam]",Ki,OXA-72,691 ± 63.8 nM
same,Ki,OXA-65,5900 ± 1050 nM
same,Ki,OXA-66,7350 ± 963 nM
Cc1ncc([N+](=O)[O-])n1CCO [MNZ],MIC,"anaerobic bacteria [1]; ATCC29328, Finegoldia magna ATCC 29328, read-out: MIC",2 µg/mL
same,MIC,"anaerobic bacteria [1]; ATCC43055, Eggerthella lenta ATCC 43055, read-out: MIC",1 µg/mL
same,MIC,"anaerobic bacteria [1]; ATCC43255, Clostridioides difficile ATCC 43255, read-out: MIC",1 µg/mL
same,MIC,"anaerobic bacteria [1]; ATCCBAA1803, Clostridioides difficile ATCC BAA-1803, read-out: MIC",2 µg/mL
same,MIC,"anaerobic bacteria [1]; ATCCBAA1870, Clostridioides difficile ATCC BAA-1870, read-out: MIC",1 µg/mL
same,MIC,"anaerobic bacteria [1]; Bacteroides fragilis, ATCC25285",1 µg/mL
same,MIC,anaerobic bacteria [1]; Bacteroides ovatus,1 µg/mL
same,MIC,"anaerobic bacteria [1]; Bacteroides thetaiotaomicron KUB2984, read-out: MIC",1 µg/mL
same,MIC,"anaerobic bacteria [1]; Bacteroides thetaiotaomicron, ATCC29741",2 µg/mL
same,MIC,"anaerobic bacteria [1]; Clostridium perfringens, ATCC13124",2 µg/mL
same,MIC,"anaerobic bacteria [1]; Cutibacterium acnes, ATCC11827",> 64 µg/mL
same,MIC,"anaerobic bacteria [1]; Fusobacterium nucleatum, ATCC25586",≤ 0.125 µg/mL
same,MIC,"anaerobic bacteria [1]; Fusobacterium varium, ATCC27725",0.5 µg/mL
same,MIC,anaerobic bacteria [1]; Lancefieldella rimae,1 µg/mL
same,MIC,anaerobic bacteria [1]; Olsenella uli,4 µg/mL
same,MIC,"anaerobic bacteria [1]; Parvimonas micra KUB3000, read-out: MIC",0.5 µg/mL
same,MIC,"anaerobic bacteria [1]; Peptoniphilus asaccharolyticus, ATCC14963",1 µg/mL
same,MIC,"anaerobic bacteria [1]; Peptostreptococcus anaerobius, ATCC27337",0.5 µg/mL
same,MIC,anaerobic bacteria [1]; Prevotella histicola,2 µg/mL
same,MIC,anaerobic bacteria [1]; Prevotella intermedia,1 µg/mL
same,MIC,anaerobic bacteria [1]; Prevotella melaninogenica,1 µg/mL
same,MIC,"anaerobic bacteria [1]; Schaalia odontolytica, ATCC17929",> 64 µg/mL
same,MIC,anaerobic bacteria [1]; Segatella buccae,2 µg/mL
same,Acceptable MIC range of quality control (QC) strain,anaerobic bacteria [2]; Bacteroides fragilis ATCC 25285 (QC strain),1 (0.25 to 1)* µg/mL
same,Acceptable MIC range of quality control (QC) strain,anaerobic bacteria [2]; Bacteroides thetaiotaomicron ATCC 29741 (QC strain),2 (0.5 to 2)* µg/mL
"C[C@]1(Cn2ccnn2)[C@H](C(=O)O)N2C(=O)C[C@H]2S1(=O)=O [Tazobactam, tazobactam]",Ki,KPC-3; [3],270 ± 80.8 nM
same,Ki,KPC-8,52 ± 11.8 nM
same,Ki,KPC-6,79.9 ± 16.5 nM
same,Ki,OXA-24,100 ± 45.6 nM
same,Ki,KPC-2; [4],159 nM
same,Ki,KPC-38,112 ± 14.5 nM
"O=C(O)[C@H]1/C(=C/CO)O[C@@H]2CC(=O)N21 [Clavulanate, clavulanate]",Ki,KPC-3,128 ± 53.2 nM
same,Ki,"OXA-48; OXA-48, class D, 30 min preincubation, n.d.: too low inhibitor activity at 100 µmol/L, read-out: Ki app",103 ± 36.5 nM
same,Ki,KPC-2,76.7 ± 38.3 nM
same,Ki,OXA-23,394 ± 169 nM
same,Ki,KPC-38,78.2 ± 20.5 nM
"O=C(O)C[C@@H]1CC[C@H](NC(=O)Cc2cccs2)B(O)O1 [Vaborbactam, vaborbactam]",Ki,KPC-3; [3],88.3 ± 30.3 nM
same,Ki,KPC-8,114 ± 22.1 nM
same,Ki,KPC-31,13300 ± 8590 nM
same,Ki,KPC-6,109 ± 21.7 nM
same,Ki,KPC-33,4600 ± 437 nM
same,Ki,SHV-12,755 ± 103 nM
same,Ki,CTX-M-14,392 ± 20.3 nM
same,Ki,CTX-M-27,351 ± 28.7 nM
same,Ki,KPC-2; [4],63.7 nM
same,Ki,PDC-11,3860 ± 163 nM
same,Ki,KPC-38,48.3 nM
